We go through 24 molecules from patent publication US7511040B2, “Imidazopyrazines as protein kinase inhibitors” (Schering Corporation, priority 2006, dated 2009).

One assay addresses T1, recombinant Aurora B (Homo sapiens, UniProt Q96GD4).
T1 construct: purchased Invitrogen pv3970
Kind of assay: Aurora B enzyme assay (IMAP fluorescence polarization, Tamra-PKAtide substrate). In kind it is biochemical. The following applies: 26 nM enzyme, 50 μM ATP, 100 nM Tamra-PKAtide, 2 hours at room temperature. As for the experimental part:
(§1) An in vitro assay was developed that utilizes recombinant Aurora A or Aurora B as an enzyme source and a peptide based on PKA as the substrate.
[…] kinase assays were performed in low protein binding 384-well plates (Corning Inc). All reagents were thawed on ice. Compounds were diluted in 100% DMSO to desirable concentrations. Each reaction consisted of 26 nM enzyme (Aurora B, Invitrogen cat#pv3970), 100 nM Tamra-PKAtide (Molecular Devices, 5TAMRA-GRTGRRNSICOOH), 50 μM ATP (Roche), 1 mM DTT (Pierce), and kinase buffer (10 mM Tris, 10 mM MgCl2, 0.01% Tween 20). For each reaction, 14 μl containing TAMRA-PKAtide, ATP, DTT and kinase buffer were combined with 1 μl diluted compound. The kinase reaction was started by the addition of 5 μl diluted enzyme. The reaction was allowed to run for 2 hours at room temperature. The reaction was stopped by adding 60 μl IMAP beads (1:400 beads in progressive (94.7% buffer A: 5.3% buffer B) 1× buffer, 24 mM NaCl). After an additional 2 hours, fluorescent polarization was measured using an Analyst AD (Molecular devices).
(§2) Dose-response curves were plotted from inhibition data generated each in duplicate, from 8 point serial dilutions of inhibitory compounds. Concentration of compound was plotted against kinase activity, calculated by degree of fluorescent polarization. To generate IC50 values, the dose-response curves were then fitted to a standard sigmoidal curve and IC50 values were derived by nonlinear regression analysis.
For orientation: In fluorescence polarisation assays a small probe gives low polarisation when free and higher when bound to something large.

In another assay the target is T2, recombinant Aurora A (Homo sapiens, UniProt O14965).
T2 construct: purchased Upstate 14-511
T2 sequence (O14965 1-403): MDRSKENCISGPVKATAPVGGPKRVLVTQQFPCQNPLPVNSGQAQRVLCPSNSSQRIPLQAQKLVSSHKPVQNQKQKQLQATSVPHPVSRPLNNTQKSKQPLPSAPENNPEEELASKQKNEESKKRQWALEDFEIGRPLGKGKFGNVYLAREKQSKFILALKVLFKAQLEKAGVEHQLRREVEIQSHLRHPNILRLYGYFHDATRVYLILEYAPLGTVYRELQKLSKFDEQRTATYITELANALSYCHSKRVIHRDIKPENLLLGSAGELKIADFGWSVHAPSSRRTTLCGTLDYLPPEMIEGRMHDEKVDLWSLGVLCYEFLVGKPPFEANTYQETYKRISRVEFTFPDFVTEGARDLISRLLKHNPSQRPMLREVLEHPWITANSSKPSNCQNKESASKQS
Kind of assay: Aurora A enzyme assay (IMAP fluorescence polarization, Tamra-PKAtide substrate). The following applies: 8 nM enzyme, 25 μM ATP, 100 nM Tamra-PKAtide, 2 hours at room temperature. It is filed as biochemical. As for the experimental part: as §1
Aurora A kinase assays were performed in low protein binding 384-well plates (Corning Inc). All reagents were thawed on ice. Compounds were diluted in 100% DMSO to desirable concentrations. […] For each reaction, 14 μl containing TAMRA-PKAtide, ATP, DTT and kinase buffer were combined with 1 μl diluted compound. The kinase reaction was started by the addition of 5 μl diluted enzyme. The reaction was allowed to run for 2 hours at room temperature. […] After an additional 2 hours, fluorescent polarization was measured using an Analyst AD (Molecular devices).
as §2

T1 sequence (Q96GD4 whole entry): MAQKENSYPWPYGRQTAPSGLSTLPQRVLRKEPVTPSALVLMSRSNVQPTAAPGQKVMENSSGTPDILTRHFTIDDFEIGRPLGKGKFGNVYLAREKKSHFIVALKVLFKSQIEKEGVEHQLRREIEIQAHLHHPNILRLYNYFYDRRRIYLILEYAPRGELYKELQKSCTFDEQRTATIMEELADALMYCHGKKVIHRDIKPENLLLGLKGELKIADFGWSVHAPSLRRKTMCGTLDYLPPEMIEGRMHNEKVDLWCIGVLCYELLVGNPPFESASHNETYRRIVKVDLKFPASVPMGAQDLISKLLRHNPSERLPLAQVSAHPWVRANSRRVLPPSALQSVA

The IC50 is the concentration that inhibits the measured activity by half. Consider `Cc1cc(Nc2nc(SC3CC3)cn3c(-c4cn[nH]c4)cnc23)sn1` [Example 4-25], for which the IC50 at recombinant Aurora B is < 1000 nM. Regarding `CC(=O)Nc1ccc(Sc2cn3c(-c4cn[nH]c4)cnc3c(Nc3cc(C)ns3)n2)cc1` [Example 4-14], the IC50 at recombinant Aurora B came to 4 nM; on recombinant Aurora A it was 9 nM.

For the molecule `Cc1cc(Nc2nc(Sc3ccc(Cl)cc3)cn3c(-c4cn[nH]c4)cnc23)sn1` [Example 4-13], the IC50 at recombinant Aurora B worked out at 612 nM. As to `Cc1cc(Nc2nc(Sc3ccccc3Cl)cn3c(-c4cn[nH]c4)cnc23)sn1` [Example 4-4], the half-inhibitory concentration (IC50) turned out to be 442 nM on recombinant Aurora B and 600 nM on recombinant Aurora A.

As for `CSc1cn2c(-c3cc(C4CC4)[nH]n3)cnc2c(Nc2cc(C)ns2)n1` [Example 4-28], the IC50 on recombinant Aurora B is > 3000 nM; on recombinant Aurora A, 16500 nM. In the case of `Cc1cc(Nc2nc(SC3CCNC3)cn3c(-c4cnn(C)c4)cnc23)sn1` (centres unmarked) [Example 4-26], the half-inhibitory concentration (IC50) on recombinant Aurora B is > 3000 nM; at recombinant Aurora A it was > 5000 nM. For the molecule `CNC(=O)CSc1cn2c(-c3cn[nH]c3)cnc2c(Nc2cc(C)ns2)n1` [Example 4-6], the IC50 at recombinant Aurora B came to 15 nM. Turning to `Cc1cc(Nc2nc(Sc3nc4ccccc4s3)cn3c(-c4cn[nH]c4)cnc23)sn1` [Example 4-1], the half-maximal inhibitory concentration (IC50) at recombinant Aurora A was determined as 661 nM. Take `Cc1cc(Nc2nc(Sc3ccncc3)cn3c(-c4cn[nH]c4)cnc23)sn1` [Example 4-21]: the IC50 on recombinant Aurora B was 285 nM. The same measure, in the same setting: next, `Cc1cc(Nc2nc(Sc3ncc[nH]3)cn3c(-c4cn[nH]c4)cnc23)sn1` [Example 4-23]: 66 nM; `Cc1cc(Nc2nc(SCC(C)O)cn3c(-c4cn[nH]c4)cnc23)sn1` (centres unmarked) [Example 4-18]: 9 nM. Take `Cc1cc(Nc2nc(Sc3ccccn3)cn3c(-c4cn[nH]c4)cnc23)sn1` [Example 4-5]: the half-maximal inhibitory concentration (IC50) at recombinant Aurora B is 432 nM. Still for that read-out and setting: next, `COc1ccc(Sc2cn3c(-c4cn[nH]c4)cnc3c(Nc3cc(C)ns3)n2)cc1` [Example 4-12]: 24 nM.

In the case of `Cc1cc(Nc2nc(Sc3ccc(NC(=O)C4CC4)cc3)cn3c(-c4cn[nH]c4)cnc23)sn1` [Example 4-19], the IC50 was 67 nM at recombinant Aurora B and 25 nM on recombinant Aurora A. With `Cc1cc(Nc2nc(Sc3cccc(Cl)c3)cn3c(-c4cn[nH]c4)cnc23)sn1` [Example 4-20], at recombinant Aurora B, the IC50 turned out to be 10 nM. `Cc1cc(Nc2nc(Sc3nccs3)cn3c(-c4cn[nH]c4)cnc23)sn1` [Example 4-22]: the 50% inhibitory concentration (IC50) on recombinant Aurora B is 7 nM. As for `CSc1cn2c(-c3cccc(C)c3)cnc2c(Nc2cc(C)ns2)n1` [Example 4-32], the IC50 was > 3000 nM on recombinant Aurora B and 14200 nM at recombinant Aurora A. Take `Cc1cc(Nc2nc(Sc3ncn[nH]3)cn3c(-c4cn[nH]c4)cnc23)sn1` [Example 4-24]: the IC50 on recombinant Aurora B was 35 nM. On to `CSc1cn2c(-c3cc[nH]n3)cnc2c(Nc2cc(C)ns2)n1` [Example 4-27], for which the IC50 was 223 nM on recombinant Aurora B and 697 nM at recombinant Aurora A.

As for `CNc1ncc(-c2cnc3c(Nc4cc(C)ns4)nc(SC)cn23)s1` [Example 4-31], the IC50 at recombinant Aurora B came to 710 nM; on recombinant Aurora A it was 7540 nM. Take `CSc1cn2c(-c3ccco3)cnc2c(Nc2cc(C)ns2)n1` [Example 4-30]: the half-maximal inhibitory concentration (IC50) came out at 1320 nM on recombinant Aurora B and 2530 nM at recombinant Aurora A.

For `COc1cccc(Sc2cn3c(-c4cn[nH]c4)cnc3c(Nc3cc(C)ns3)n2)c1` [Example 4-11], the results for the half-maximal inhibitory concentration (IC50) on recombinant Aurora B and on recombinant Aurora A were 114 nM and 50 nM, respectively. Regarding `CSc1cn2c(-c3cn[nH]c3)cnc2c(Nc2cc(C)ns2)n1` [Example 4-3], on recombinant Aurora B, the concentration for half-maximal inhibition (IC50) was 11 nM.

As to `COc1ccccc1Sc1cn2c(-c3cn[nH]c3)cnc2c(Nc2cc(C)ns2)n1` [Example 4-10], the concentration for half-maximal inhibition (IC50) at recombinant Aurora B amounted to 24 nM; on recombinant Aurora A it was 74 nM.
